Measurements: a compilation of properties of binary mixtures (doi:10.1007/s10953-017-0695-7)

Assay: xn = mol fraction of the nth substance listed
Details: 101 kPa

CCCCCC[n+]1ccn(C)c1.[Cl-] + OCCO
viscosity [mPa·s]
Details	293.15 K	303.15 K	313.15 K	323.15 K	333.15 K
x1 = 0.003	–	14.18	9.77	7.07	5.21
x1 = 0.0061	21.52	14.23	9.86	–	–
x1 = 0.0124	21.64	14.24	9.94	7.17	5.33
x1 = 0.0188	21.81	–	–	7.24	5.4
x2 = 0	11400	–	1718	–	398
x2 = 0.1526	3449	861	629	326	–
x2 = 0.3167	774	385	214.7	127.1	79.6
x2 = 0.3999	387	210.7	124.2	77.3	51.2
x2 = 0.4977	–	102.8	65.1	42.5	–
x2 = 0.6002	–	53	35.51	–	18.06
x2 = 0.6987	46.8	30.76	–	–	–
x2 = 0.8026	29.46	19.81	13.95	10.18	7.71
x2 = 0.8897	24.2	16.2	–	8.37	6.32
x2 = 0.8998	23.77	16.02	11.25	–	6.18
x2 = 0.9152	23.12	15.52	10.98	7.98	6
x2 = 0.931	22.64	15.24	10.67	7.73	5.82
x2 = 0.9532	22.13	14.78	10.37	7.51	–
x2 = 0.9642	22.02	14.71	–	–	5.53
x2 = 0.9761	21.83	14.45	–	7.27	5.46
